# System: sGC (cGMP)
# Experiment: Phase I, healthy male subjects, 7 days once daily inhalation: cGMP in blood samples (C-4.1)
# Assay type: in vivo, human
# Settings: for time of cGMP peak after administration: first inhalation; for mean peak cGMP: after repeated dosing for 7 days; for peak mean±SD cGMP: first profile day
# Method: Healthy White male subjects, aged 18 to 45 years and with a body mass index (BMI) above/equal 18.5 and below/equal 29.9 kg/m2 were treated in a clinical pharmacological phase I study on seven days with inhaled once daily doses of 480 μg or 1000 μg or 2000 μg (2 capsules of 1000 μg) (nominal dose) of dry powder formulations of example 2 or Placebo. The subjects inhaled the drug powder from capsules (see under D-1, e.g. tables 22 and 23) inserted into a handheld inhalation device by one deep inhalative breath. The dry powder formulation of the drug is dispersed into the airstream and fine particles are transported into the deep parts of the lung where it is intended to cause a vasodilation of the blood vessels in PH patients for a substantial reduction of increased blood pressure in the central pulmonary blood vessels in PAH patients or other subtypes of PH. This effect cannot be shown in subjects with healthy lungs. In addition inhaled drug causes a dilation of the bronchial airways and thus also improves disease states of lung diseases in PH patients with pathological bronchoconstriction. This effect was measured via bodyplethysmography as reduction of Specific Airway Resistance in healthy subjects. After the deep inhalative breath the subjects hold breath for 2 seconds, so that the dry powder drug condenses from the airstream onto the surface of the deeper lung areas where it is deposited close to its site of intended pharmacological action. The drug dissolutes over the day and equilibrates the lung via lining fluid.
# Drug activity in healthy men was controlled in the healthy subjects by analysing blood samples for cGMP, the immediate product of sGC pharmacological activation prior after the first and after the last drug inhalation of the 7 days treatment in comparison to measurements on the pretreatment day for all doses.
# This prolonged activity in comparison to systemic drug concentration is caused by the mode of administration as inhaled dry powder, that deposits drug in the deeper part of the lung leading to an active drug concentration over 24 h after a once daily inhalation.
# At 10 days after the first treatment, mean cGMP concentrations had returned close to the concentration observed at the pre-dosing day.
structure (smiles),measurement,setting,value
"O=C(O)c1ccc(CCN(CCc2ccccc2OCc2ccc(-c3ccc(C(F)(F)F)cc3)cc2Cl)[C@H]2CCCc3nc(C(=O)O)ccc32)cc1 [example 2, (5S)-{[2-(4-Carboxyphenyl)ethyl][2-(2-{[3-chloro-4′-(trifluoromethyl)biphenyl-4-yl]methoxy}phenyl)-ethyl]amino}-5,6,7,8-tetrahydroquinoline-2-carboxylic acid]","cGMP, mean ± SD","1000 μg, 5 D 00 H 00 M (trough)",8.50 ± 2.13 nmol/L
same,"cGMP, mean ± SD","1000 μg, 6 D 00 H 00 M (trough)",9.23 ± 2.12 nmol/L
same,"cGMP, mean ± SD","1000 μg, 7 D 00 H 00 M (trough)",9.66 ± 2.30 nmol/L
same,"cGMP, mean ± SD","1000 μg, 7 D 02 H 00 M",11.84 ± 2.18 nmol/L
same,"cGMP, mean ± SD","1000 μg, 7 D 04 H 00 M",15.76 ± 2.29 nmol/L
same,"cGMP, mean ± SD","1000 μg, 7 D 06 H 00 M",16.70 ± 2.96 nmol/L
same,"cGMP, mean ± SD","1000 μg, 7 D 08 H 00 M",15.91 ± 3.86 nmol/L
same,"cGMP, mean ± SD","1000 μg, 7 D 12 H 00 M",14.10 ± 4.55 nmol/L
same,"cGMP, mean ± SD","1000 μg, 7 D 15 H 00 M",12.91 ± 3.72 nmol/L
same,"cGMP, mean ± SD","1000 μg, 8 D 00 H 00 M",9.38 ± 3.11 nmol/L
same,"cGMP, mean ± SD","1000 μg, 8 D 12 H 00 M",7.21 ± 2.24 nmol/L
same,"cGMP, mean ± SD","1000 μg, 9 D 00 H 00 M",6.29 ± 1.86 nmol/L
same,"cGMP, mean ± SD","1000 μg, 9 D 12 H 00 M",5.93 ± 1.39 nmol/L
same,"cGMP, mean ± SD","1000 μg, 10 D 00 H 00 M",6.33 ± 2.30 nmol/L
same,"cGMP, mean ± SD","1000 μg, −0 D 09 H 00 M (baseline)",4.18 ± 0.82 nmol/L
same,cyclic guanosine monophosphate changes from baseline,"1000 μg, −0 D 09 H 00 M (pretreatment day)",-0.84 ± 2.04 nmol/L
same,"cGMP, mean ± SD","1000 μg, −0 D 12 H 00 M (baseline)",4.26 ± 0.99 nmol/L
same,cyclic guanosine monophosphate changes from baseline,"1000 μg, −0 D 12 H 00 M (pretreatment day)",-0.77 ± 1.72 nmol/L
same,"cGMP, mean ± SD","1000 μg, −0 D 16 H 00 M (baseline)",4.59 ± 1.06 nmol/L
same,cyclic guanosine monophosphate changes from baseline,"1000 μg, −0 D 16 H 00 M (pretreatment day)",-0.43 ± 1.49 nmol/L
same,"cGMP, mean ± SD","1000 μg, −0 D 18 H 00 M (baseline)",4.16 ± 0.92 nmol/L
same,cyclic guanosine monophosphate changes from baseline,"1000 μg, −0 D 18 H 00 M (pretreatment day)",-0.87 ± 1.44 nmol/L
same,"cGMP, mean ± SD","1000 μg, −0 D 20 H 00 M (baseline)",4.78 ± 1.37 nmol/L
same,cyclic guanosine monophosphate changes from baseline,"1000 μg, −0 D 20 H 00 M (pretreatment day)",-0.24 ± 1.75 nmol/L
same,"cGMP, mean ± SD","1000 μg, −0 D 22 H 00 M (baseline)",5.10 ± 1.46 nmol/L
same,cyclic guanosine monophosphate changes from baseline,"1000 μg, −0 D 22 H 00 M (pretreatment day)",0.08 ± 1.41 nmol/L
same,"cGMP, mean ± SD","1000 μg, −1 D 02 H 00 M (baseline)",5.02 ± 1.59 nmol/L
same,time of cGMP peak after administration,2000 μg dose,8 h
same,cyclic guanosine monophosphate changes from baseline,"2000 μg once daily inhaled, 0 D 02 H 00 M",4.78 ± 1.35 nmol/L
same,cyclic guanosine monophosphate changes from baseline,"2000 μg once daily inhaled, 0 D 04 H 00 M",9.18 ± 2.50 nmol/L
same,cyclic guanosine monophosphate changes from baseline,"2000 μg once daily inhaled, 0 D 06 H 00 M",11.04 ± 3.21 nmol/L
same,cyclic guanosine monophosphate changes from baseline,"2000 μg once daily inhaled, 0 D 08 H 00 M",11.69 ± 2.78 nmol/L
same,cyclic guanosine monophosphate changes from baseline,"2000 μg once daily inhaled, 0 D 12 H 00 M",8.56 ± 2.19 nmol/L
same,cyclic guanosine monophosphate changes from baseline,"2000 μg once daily inhaled, 0 D 15 H 00 M",7.54 ± 2.32 nmol/L
same,cyclic guanosine monophosphate changes from baseline,"2000 μg once daily inhaled, 1 D 00 H 00 M",3.48 ± 0.90 nmol/L
same,cyclic guanosine monophosphate changes from baseline,"2000 μg once daily inhaled, 2 D 00 H 00 M",1.57 ± 0.86 nmol/L
same,cyclic guanosine monophosphate changes from baseline,"2000 μg once daily inhaled, 3 D 00 H 00 M",5.17 ± 1.51 nmol/L
same,cyclic guanosine monophosphate changes from baseline,"2000 μg once daily inhaled, 4 D 00 H 00 M",9.33 ± 2.55 nmol/L
same,cyclic guanosine monophosphate changes from baseline,"2000 μg once daily inhaled, 5 D 00 H 00 M",11.10 ± 3.49 nmol/L
same,cyclic guanosine monophosphate changes from baseline,"2000 μg once daily inhaled, 6 D 00 H 00 M",11.71 ± 2.66 nmol/L
same,cyclic guanosine monophosphate changes from baseline,"2000 μg once daily inhaled, 7 D 00 H 00 M",11.36 ± 3.37 nmol/L
same,cyclic guanosine monophosphate changes from baseline,"2000 μg once daily inhaled, 7 D 02 H 00 M",17.33 ± 4.18 nmol/L
same,cyclic guanosine monophosphate changes from baseline,"2000 μg once daily inhaled, 7 D 04 H 00 M",22.23 ± 4.75 nmol/L
same,cyclic guanosine monophosphate changes from baseline,"2000 μg once daily inhaled, 7 D 06 H 00 M",27.39 ± 6.93 nmol/L
same,cyclic guanosine monophosphate changes from baseline,"2000 μg once daily inhaled, 7 D 08 H 00 M",27.83 ± 7.77 nmol/L
same,cyclic guanosine monophosphate changes from baseline,"2000 μg once daily inhaled, 7 D 12 H 00 M",23.33 ± 5.53 nmol/L
same,cyclic guanosine monophosphate changes from baseline,"2000 μg once daily inhaled, 7 D 15 H 00 M",19.08 ± 4.95 nmol/L
same,cyclic guanosine monophosphate changes from baseline,"2000 μg once daily inhaled, 8 D 00 H 00 M",11.17 ± 3.69 nmol/L
same,cyclic guanosine monophosphate changes from baseline,"2000 μg once daily inhaled, 8 D 12 H 00 M",8.02 ± 2.45 nmol/L
same,cyclic guanosine monophosphate changes from baseline,"2000 μg once daily inhaled, 9 D 00 H 00 M",5.64 ± 1.36 nmol/L
same,cyclic guanosine monophosphate changes from baseline,"2000 μg once daily inhaled, 9 D 12 H 00 M",4.57 ± 2.15 nmol/L
same,cyclic guanosine monophosphate changes from baseline,"2000 μg once daily inhaled, 10 D 00 H 00 M",3.26 ± 1.07 nmol/L
same,cyclic guanosine monophosphate changes from baseline,"2000 μg, 0 D 00 H 00 M",0.68 ± 1.14 nmol/L
same,"cGMP, mean ± SD","2000 μg, 0 D 00 H 00 M (baseline)",4.83 ± 2.52 nmol/L
same,"cGMP, mean ± SD","2000 μg, 0 D 02 H 00 M",9.61 ± 3.65 nmol/L
same,"cGMP, mean ± SD","2000 μg, 0 D 04 H 00 M",14.01 ± 4.51 nmol/L
same,"cGMP, mean ± SD","2000 μg, 0 D 06 H 00 M",15.88 ± 5.09 nmol/L
same,"cGMP, mean ± SD","2000 μg, 0 D 08 H 00 M",16.52 ± 4.24 nmol/L
same,"cGMP, mean ± SD","2000 μg, 0 D 12 H 00 M",13.39 ± 4.01 nmol/L
same,"cGMP, mean ± SD","2000 μg, 0 D 15 H 00 M",12.38 ± 4.17 nmol/L
same,"cGMP, mean ± SD","2000 μg, 1 D 00 H 00 M",8.31 ± 2.88 nmol/L
same,"cGMP, mean ± SD","2000 μg, 2 D 00 H 00 M",6.40 ± 2.09 nmol/L
same,"cGMP, mean ± SD","2000 μg, 3 D 00 H 00 M (trough)",10.00 ± 3.51 nmol/L
same,"cGMP, mean ± SD","2000 μg, 4 D 00 H 00 M (trough)",14.17 ± 4.36 nmol/L
same,"cGMP, mean ± SD","2000 μg, 5 D 00 H 00 M (trough)",15.93 ± 5.52 nmol/L
same,"cGMP, mean ± SD","2000 μg, 6 D 00 H 00 M (trough)",16.54 ± 4.60 nmol/L
same,"cGMP, mean ± SD","2000 μg, 7 D 00 H 00 M (trough)",16.19 ± 5.02 nmol/L
same,"cGMP, mean ± SD","2000 μg, 7 D 02 H 00 M",22.17 ± 6.07 nmol/L
same,"cGMP, mean ± SD","2000 μg, 7 D 04 H 00 M",27.07 ± 7.01 nmol/L
same,"cGMP, mean ± SD","2000 μg, 7 D 06 H 00 M",32.22 ± 8.83 nmol/L
same,"cGMP, mean ± SD","2000 μg, 7 D 08 H 00 M",32.67 ± 9.48 nmol/L
same,"cGMP, mean ± SD","2000 μg, 7 D 12 H 00 M",28.17 ± 7.50 nmol/L
same,"cGMP, mean ± SD","2000 μg, 7 D 15 H 00 M",23.91 ± 6.59 nmol/L
same,"cGMP, mean ± SD","2000 μg, 8 D 00 H 00 M",16.00 ± 5.77 nmol/L
same,"cGMP, mean ± SD","2000 μg, 8 D 12 H 00 M",12.86 ± 3.96 nmol/L
same,"cGMP, mean ± SD","2000 μg, 9 D 00 H 00 M",10.48 ± 3.49 nmol/L
same,"cGMP, mean ± SD","2000 μg, 9 D 12 H 00 M",9.40 ± 3.10 nmol/L
same,"cGMP, mean ± SD","2000 μg, 10 D 00 H 00 M",8.09 ± 2.81 nmol/L
same,"cGMP, mean ± SD","2000 μg, −0 D 09 H 00 M (baseline)",3.98 ± 1.91 nmol/L
same,cyclic guanosine monophosphate changes from baseline,"2000 μg, −0 D 09 H 00 M (pretreatment day)",-0.18 ± 0.90 nmol/L
same,"cGMP, mean ± SD","2000 μg, −0 D 12 H 00 M (baseline)",4.43 ± 2.24 nmol/L
same,cyclic guanosine monophosphate changes from baseline,"2000 μg, −0 D 12 H 00 M (pretreatment day)",0.28 ± 0.97 nmol/L
same,"cGMP, mean ± SD","2000 μg, −0 D 16 H 00 M (baseline)",4.44 ± 2.15 nmol/L
same,cyclic guanosine monophosphate changes from baseline,"2000 μg, −0 D 16 H 00 M (pretreatment day)",0.29 ± 1.17 nmol/L
same,"cGMP, mean ± SD","2000 μg, −0 D 18 H 00 M (baseline)",4.32 ± 1.33 nmol/L
same,cyclic guanosine monophosphate changes from baseline,"2000 μg, −0 D 18 H 00 M (pretreatment day)",0.17 ± 0.78 nmol/L
same,"cGMP, mean ± SD","2000 μg, −0 D 20 H 00 M (baseline)",4.63 ± 1.86 nmol/L
same,cyclic guanosine monophosphate changes from baseline,"2000 μg, −0 D 20 H 00 M (pretreatment day)",0.48 ± 0.71 nmol/L
same,"cGMP, mean ± SD","2000 μg, −0 D 22 H 00 M (baseline)",4.81 ± 2.22 nmol/L
same,cyclic guanosine monophosphate changes from baseline,"2000 μg, −0 D 22 H 00 M (pretreatment day)",0.66 ± 0.79 nmol/L
same,"cGMP, mean ± SD","2000 μg, −1 D 02 H 00 M (baseline)",4.16 ± 1.70 nmol/L
same,start of cGMP increase after first inhalation,"480, 1000, 2000 μg",approximately 2 h
same,time of cGMP peak after administration,480 and 1000 μg dose,6 h
same,mean peak cGMP,480 μg,11.96 ± 2.80 nmol/L
same,mean peak cGMP,1000 μg,16.70 ± 2.96 nmol/L
same,mean peak cGMP,2000 μg,32.67 ± 9.48 nmol/L
same,peak mean±SD cGMP,480 μg,8.84 ± 1.35 nmol/L
same,peak mean±SD cGMP,1000 μg,11.69 ± 1.86 nmol/L
same,peak mean±SD cGMP,2000 μg,16.52 ± 4.24 nmol/L
